Reference: patent US10858368B2, “Modulators of the 5-hydroxytryptamine receptor 7 and their method of use” (Temple University—Of The Commonwealth System of Higher …, priority 2016, dated 2020)

Target: 5HT7 receptors (Homo sapiens (Human), UniProt P34969)
Assay: Radiolabel Binding Studies for Serotonin 5-HT7 Receptors, Method 2 ([3H]-5HT competition; Ki, and percent inhibition at 10 μM)
Settings: single concentration 10 uM; inhibition of radioligand binding to 5HT7 receptors; read-out: 5-HT7 % inhib @ 10 uM
Experimental: A solution of the compound of the disclosure to be tested is prepared as a 1-mg/ml stock in Assay Buffer or DMSO according to its solubility. A similar stock of the reference compound chlorpromazine is also prepared as a positive control. Eleven dilutions (5× assay concentration) of the compound of the disclosure and chlorpromazine are prepared in the Assay Buffer by serial dilution to yield final corresponding assay concentrations ranging from 10 pM to 10 μM.
A stock concentration of 5 nM [^3H]-5-Hydroxytryptamine ([^3H]-5HT) is prepared in 50 mM Tris-HCl, 10 mM MgCl2, 1 mM EDTA, pH 7.4 (Assay Buffer). Aliquots (50 μl) of radioligand are dispensed into the wells of a 96-well plate containing 100 al of Assay Buffer. Duplicate 50-μl aliquots of the compound of the disclosure test and chlorpromazine positive control reference compound serial dilutions are added.
Membrane fractions of cells expressing recombinant 5HT7 receptors (50 μL) are dispensed into each well. The membranes are prepared from stably transfected cell lines expressing 5HT7 receptors cultured on 10-cm plates by harvesting PBS-rinsed monolayers, resuspending and lysing in chilled, hypotonic 50 mM Tris-HCl, pH 7.4, centrifuging at 20,000×g, decanting the supernatant and storing at −80° C.; the membrane preparations are resuspended in 3 ml of chilled Assay Buffer and homogenized by several passages through a 26 gauge needle before using in the assay.
The 250-μl reactions are incubated at room temperature for 1.5 hours, then harvested by rapid filtration onto 0.3% polyethyleneimine-treated, 96-well filter mats using a 96-well Filtermate harvester. Four rapid 500-μl washes are performed with chilled Assay Buffer to reduce non-specific binding. The filter mats are dried, then scintillant is added to the filters and the radioactivity retained on the filters is counted in a Microbeta scintillation counter.
Raw data (dpm) representing total radioligand binding (i.e., specific+non-specific binding) are plotted as a function of the logarithm of the molar concentration of the competitor (i.e., test or reference compound). Non-linear regression of the normalized (i.e., percent radioligand binding compared to that observed in the absence of test or reference compound) raw data is performed in Prism 4.0 (GraphPad Software) using the built-in three parameter logistic model describing ligand competition binding to radioligand-labeled sites: y=bottom+[(top−bottom)/(1+10×−log IC50)] where bottom equals the residual radioligand binding measured in the presence of 10 μM reference compound (i.e., non-specific binding) and top equals the total radioligand binding observed in the absence of competitor. The log IC50 (i.e., the log of the ligand concentration that reduces radioligand binding by 50%) is thus estimated from the data and used to obtain the Ki by applying the Cheng-Prusoff approximation: Ki=IC50/(1+[ligand]/KD) where [ligand] equals the assay radioligand concentration and KD equals the affinity constant of the radioligand for the target receptor.
Compounds of the disclosure are also screened at a single concentration of 10 μM using the same method described for the Radiolabel Binding Studies for Serotonin 5HT7 receptors to determine the percent inhibition of [^3H]-5HT binding.

5HT7 receptors, sequence (P34969 whole entry): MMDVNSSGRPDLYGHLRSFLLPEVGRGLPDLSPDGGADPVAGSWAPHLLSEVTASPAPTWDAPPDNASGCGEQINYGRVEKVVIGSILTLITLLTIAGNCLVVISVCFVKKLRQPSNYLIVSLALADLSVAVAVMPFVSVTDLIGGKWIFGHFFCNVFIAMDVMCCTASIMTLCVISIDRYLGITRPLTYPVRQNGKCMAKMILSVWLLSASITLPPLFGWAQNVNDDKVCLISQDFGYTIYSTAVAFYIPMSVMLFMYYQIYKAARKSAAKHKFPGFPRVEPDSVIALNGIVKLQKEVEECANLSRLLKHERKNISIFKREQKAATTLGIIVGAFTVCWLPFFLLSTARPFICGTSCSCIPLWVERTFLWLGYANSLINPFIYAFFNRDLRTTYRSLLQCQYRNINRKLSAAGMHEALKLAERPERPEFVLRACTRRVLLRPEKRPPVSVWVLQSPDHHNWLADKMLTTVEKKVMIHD

Structure (SMILES) | inhibition at 10 µM
Cc1ccc(N2CCN(CCC3CC4(CCN(Cc5ccccc5)CC4)C(=O)O3)CC2)cc1 (stereo not shown) [Entry 1] | 96.5%
Cc1ccc(N2CCN(CCC3CC4(CCNCC4)C(=O)O3)CC2)cc1 (stereo not shown) [Entry 2] | 88.8%
COC(=O)N1CCC2(CC1)CC(CCN1CCN(c3ccc(C)cc3)CC1)OC2=O (stereo not shown) [Entry 3] | 90%
CC(=O)N1CCC2(CC1)CC(CCN1CCN(c3ccc(C)cc3)CC1)OC2=O (stereo not shown) [Entry 4] | 88.5%
CNC(=O)N1CCC2(CC1)CC(CCN1CCN(c3ccc(C)cc3)CC1)OC2=O (stereo not shown) [Entry 5] | 91.6%
Cc1ccc(N2CCN(CCC3CC4(CCN(S(C)(=O)=O)CC4)C(=O)O3)CC2)cc1 (stereo not shown) [Entry 6] | 90.5%
Cc1nc2cccc(N3CCN(CCC4CC5(CCN(S(C)(=O)=O)CC5)C(=O)O4)CC3)c2[nH]1 (stereo not shown) [Entry 8] | 100%
